{
  "source": "patent US20150094364A1",
  "about": "“METHOD OF USING THEAFLAVIN” (priority 2013, published 2015)",
  "type_in_all_cases": "in vivo, Wistar rats",
  "key": {"[1]": {"assay": "Body weight, liver weight and liver/body ratio in ethanol-fed rats (ALD model)", "conditions": "ethanol 6000 mg/kg BW per day; for Liver Weight / Liver body ratio: 30 days; for BW (ending): end of 30-day study", "description": "(§1) 6-week old male rats (Wistar rats) were stabilized and then divided into 5 groups with 10 rats per group (n=10). Rats overdosed with ethanol were used as an experimental model for human ALD. Four groups of rats were fed with ethanol at a dose of 6000 mg/kg BW (50% ethanol at 12 ml/kg BW) per day for 30 days. These four groups were divided into positive control, theaflavin (low), theaflavin (mid), and theaflavin (high). Theaflavin (capsule, Xiayie) was also fed to rat at a dose of 83 mg/kg BW (low), 250 mg/kg (mid), and 500 mg/kg (high). In addition, Fifth group was fed with water as a negative control. Animals were sacrificed after the 30-day study and livers were collected for further analyses."}, "[2]": {"system": "Rats overdosed with ethanol (experimental model for human ALD)", "assay": "Liver markers MDA, GSH and TG in ethanol-fed rats (ALD model)", "conditions": "for GSH / MDA / TG: rat liver, ethanol 30 days", "description": "as §1\nThree liver markers, i.e., malondialdehyde (MDA, a marker of oxidative stress), glutathione (GSH), and triglyceride (TG) were measured."}, "[3]": {"system": "Rats overdosed with ethanol (experimental model for human ALD)", "assay": "Liver histopathology (liver cell fat rating, fat color rating) in ethanol-fed rats (ALD model)", "set-up": "Liver cell fat rating / Liver cell fat rating, sum / Fat color rating: scale not given here", "conditions": "for Fat color rating: n=10; for Liver cell fat rating: individual animals (ID 1-10); for Liver cell fat rating, sum: sum of 10 animals", "description": "as §1"}},
  "note": "Several values for one entry are separate records, joined by “and”; a condition that tells them apart may be missing. Equal entries are not always repeated.",
  "data": [
    {"smiles": "O=c1c(O)cc([C@H]2Oc3cc(O)cc(O)c3C[C@H]2O)cc2c([C@H]3Oc4cc(O)cc(O)c4C[C@H]3O)cc(O)c(O)c12", "note": "[Theaflavin, theaflavin]", "values": [
      {"measurement": "Liver Weight", "setting": "[1]; 83 mg/kg BW theaflavin", "result": "9.19 ± 0.88", "unit": "g"},
      {"measurement": "Liver body ratio", "setting": "[1]; 83 mg/kg BW theaflavin", "result": "2.79 ± 0.22", "unit": "%"},
      {"measurement": "BW (ending)", "setting": "[1]; 83 mg/kg BW theaflavin", "result": "329.1 ± 19.17", "unit": "g"},
      {"measurement": "BW (intermediate)", "setting": "[1]; 83 mg/kg BW theaflavin", "result": "256.1 ± 21.23", "unit": "g"},
      {"measurement": "Liver Weight", "setting": "[1]; 250 mg/kg BW theaflavin", "result": "9.83 ± 1.12", "unit": "g"},
      {"measurement": "Liver body ratio", "setting": "[1]; 250 mg/kg BW theaflavin", "result": "2.86 ± 0.23", "unit": "%"},
      {"measurement": "BW (ending)", "setting": "[1]; 250 mg/kg BW theaflavin", "result": "342.9 ± 21.99", "unit": "g"},
      {"measurement": "BW (intermediate)", "setting": "[1]; 250 mg/kg BW theaflavin", "result": "266.3 ± 17.10", "unit": "g"},
      {"measurement": "Liver Weight", "setting": "[1]; 500 mg/kg BW theaflavin", "result": "10.34 ± 1.32", "unit": "g"},
      {"measurement": "Liver body ratio", "setting": "[1]; 500 mg/kg BW theaflavin", "result": "2.84 ± 0.27", "unit": "%"},
      {"measurement": "BW (ending)", "setting": "[1]; 500 mg/kg BW theaflavin", "result": "365.2 ± 44.39", "unit": "g"},
      {"measurement": "BW (intermediate)", "setting": "[1]; 500 mg/kg BW theaflavin", "result": "272.3 ± 17.27", "unit": "g"},
      {"measurement": "GSH", "setting": "[2]; 83 mg/kg BW theaflavin", "result": "13.86 ± 1.80", "unit": "mg/g"},
      {"measurement": "MDA", "setting": "[2]; 83 mg/kg BW theaflavin", "result": "1.32 ± 0.13", "unit": "nmol/mg"},
      {"measurement": "TG", "setting": "[2]; 83 mg/kg BW theaflavin", "result": "0.62 ± 0.21", "unit": "mmol/L"},
      {"measurement": "GSH", "setting": "[2]; 250 mg/kg BW theaflavin", "result": "13.91 ± 1.66", "unit": "mg/g"},
      {"measurement": "MDA", "setting": "[2]; 250 mg/kg BW theaflavin", "result": "1.24 ± 0.49", "unit": "nmol/mg"},
      {"measurement": "TG", "setting": "[2]; 250 mg/kg BW theaflavin", "result": "0.65 ± 0.14", "unit": "mmol/L"},
      {"measurement": "GSH", "setting": "[2]; 500 mg/kg BW theaflavin", "result": "14.43 ± 0.69", "unit": "mg/g"},
      {"measurement": "MDA", "setting": "[2]; 500 mg/kg BW theaflavin", "result": "1.23 ± 0.08", "unit": "nmol/mg"},
      {"measurement": "TG", "setting": "[2]; 500 mg/kg BW theaflavin", "result": "0.64 ± 0.13", "unit": "mmol/L"},
      {"measurement": "MDA when compared to positive controls", "setting": "[2]; theaflavin (high) 500 mg/kg", "result": "lower"},
      {"measurement": "TG when compared to positive controls", "setting": "[2]; theaflavin (high) 500 mg/kg", "result": "lower"},
      {"measurement": "MDA when compared to positive controls", "setting": "[2]; theaflavin (mid) 250 mg/kg", "result": "lower"},
      {"measurement": "TG when compared to positive controls", "setting": "[2]; theaflavin (mid) 250 mg/kg", "result": "lower"},
      {"measurement": "Fat color rating", "setting": "[3]; 83 mg/kg BW theaflavin", "result": "1.60 ± 0.70"},
      {"measurement": "Fat color rating", "setting": "[3]; 250 mg/kg BW theaflavin", "result": "1.40 ± 0.70"},
      {"measurement": "Fat color rating", "setting": "[3]; 500 mg/kg BW theaflavin", "result": "1.30 ± 0.82"},
      {"measurement": "Liver cell fat rating", "setting": "[3]; theaflavin (high) 500 mg/kg, 500 mg/kg", "result": "1 (6×) and 0 and 3 and 2 (2×)"},
      {"measurement": "Liver cell fat rating", "setting": "[3]; theaflavin (low) 83 mg/kg BW, 83 mg/kg", "result": "1 (5×) and 3 and 2 (4×)"},
      {"measurement": "Liver cell fat rating", "setting": "[3]; theaflavin (mid) 250 mg/kg, 250 mg/kg", "result": "1 (4×) and 0 and 2 (5×)"},
      {"measurement": "Liver cell fat rating, sum", "setting": "[3]; theaflavin (high) 500 mg/kg", "result": 13},
      {"measurement": "Liver cell fat rating, sum", "setting": "[3]; theaflavin (low) 83 mg/kg BW", "result": 16},
      {"measurement": "Liver cell fat rating, sum", "setting": "[3]; theaflavin (mid) 250 mg/kg", "result": 14},
      {"measurement": "Fat color rating compared to positive control", "setting": "[3]; theaflavin (high) 500 mg/kg", "result": "different readings"},
      {"measurement": "Liver cell fat rating compared to positive control", "setting": "[3]; theaflavin (high) 500 mg/kg", "result": "different readings"},
      {"measurement": "Fat color rating compared to positive control", "setting": "[3]; theaflavin (mid) 250 mg/kg", "result": "different readings"},
      {"measurement": "Liver cell fat rating compared to positive control", "setting": "[3]; theaflavin (mid) 250 mg/kg", "result": "different readings"}
    ]}
  ]
}
